Results: paper PMC8869097, “Benzothiazole Derivatives as Multifunctional Antioxidant Agents for Skin Damage: Structure–Activity Relationship of a Scaffold Bearing a Five-Membered Ring System” (Antioxidants, 2022)
Read-outs that look alike come from different tables or passages of the source.

Assays:
In vitro DPPH test = conditions: compounds at 1 mg/mL, 30 min, 517 nm
Procedure: The assay performed is adapted from Wang et al.. Briefly, 0.750 mL of 1 mg/mL solutions of the tested compounds was treated with 1.5 mL of DPPH solution in MeOH. The absorbance of samples, stored for 30 min at room temperature in the dark, was read on the spectrophotometer at 517 nm. The values obtained were converted into a radical inhibition percentage (%) by Equation (1). DPPH radical scavenging capacity (%) = [1 − A1/A0] × 100%(1) where A0 and A1 were, respectively, the absorbance without and with the sample. Subsequently, the compound with the best profile was tested in order to determine the IC50 (µg/mL). A linear regression plot is performed to calculate the actual sample concentration required to eliminate 50% of the DPPH free radicals.
The antioxidant activity of a molecule is very important and, if present, it can be synergistic with the SPF described above in reducing the damage that is ROS-induced by UV rays. For this reason, the synthesized compounds were assayed in vitro to assess their antioxidant profiles by means of the DPPH and FRAP assays (Table 2). Regarding the ability to scavenge the stable radical 2,2-diphenyl-1-picrylhydrazyl (DPPH), it was decided to investigate first the compounds synthesized at the same concentration (1 mg/mL) and evaluate the percentage of inhibition of the radical DPPH.

[1] = Ferric Reducing Antioxidant Power assay (FRAP); conditions: 593 nm
Procedure: The FRAP assay is a widely used method based on a colorimetric reaction linked to a redox and on the use of antioxidants as reducing agents.
The test evaluates the capacity of a sample to reduce ferric to ferrous ions in the presence of TPTZ (2,4,6-tripyridyl-s-triazine). The reaction mixture consists of 0.1 M acetate buffer pH 3.6, 10 mmol/L TPTZ in 40 mmol/HCl, and 20 mmol/L ferric chloride in the ratio 10/1/1 (v:v:v) as described by Benzie et al.. A total of 1.9 mL of reagent was added to 0.1 mL of suitably diluted sample or solvent. The absorbance values were measured using the UV-VIS spectrophotometer at 593 nm and expressed as µmol TE/g compound.

Microsporum gypseum = assay: Antidermatophyte activity, plaque growth inhibition; format: cell-based, Microsporum gypseum CBS 130,948; conditions: Nannizzia gypsea, read-out: % Inhibition Growth M. gypseum
Procedure: (§1) The dermatophytes used in this study were Epidermophyton floccosum var. floccosum (Netherlands) CBS 358.93 strain, Trichophyton tonsurans (Netherlands) CBS 483.76 strain, Trichophyton mentagrophytes (Netherlands) CBS 160.66 strain, Microsporum canis (Iran) CBS 131,110 strain, and Microsporum gypseum (Iran) CBS 130,948 strain. All dermatophytes were maintained at 4 °C as agar slants on SDA. Candida albicans (ATCC 10231) was maintained at 4 °C on SDA plate.
(§2) The in vitro antifungal activity against the five selected dermatophytes was evaluated, as previously described, using the plaque growth inhibition method. All compounds were evaluated at the final concentration of 100 µg/mL. The percentages of growth inhibition according to Equation (5) were calculated as the average of three different experiments. I = [(C − T)/C] × 100%,(5) where I is the percentage value of growth inhibition, C is the measure of the diameter of the control circular mycelial inoculum (mm) and T is the extended diameter of the treated mycelial inoculum (mm).
(§3) All synthesized benzothiazole derivatives were evaluated to evaluate their in vitro antifungal activity against the five pathogenic dermatophytes that cause the most common dermatomycoses: Microsporum gypseum, Microsporum canis, Trichophyton mentagrophytes, Trichophyton tonsurans and Epidermophyton floccosum. All compounds were tested at a concentration of 100 µg/mL in DMSO, to evaluate the ability to inhibit the growth of dermatophyte cultures in Sabouraud Dextrose Agar (SDA). Briefly, room temperature incubation was performed and dermatophyte inhibition assessed by measuring the colony diameter at each disc for 7 days. The results are shown in Table 3 and were determined as the average of three different experiments.

Trichophyton tonsurans = assay: as above; format: cell-based, Trichophyton tonsurans CBS 483.76; conditions: read-out: % Inhibition Growth T. tonsurans
Procedure: as §1, §2, §3

Microsporum canis = assay: as above; format: cell-based, Microsporum canis CBS 131,110; conditions: read-out: % Inhibition Growth M. canis
Procedure: as §1, §2, §3

Epidermophyton floccosum = assay: as above; format: cell-based, Epidermophyton floccosum var. floccosum CBS 358.93; conditions: read-out: % Inhibition Growth E. floccosum
Procedure: as §1, §2, §3

[2] = UV spectra of compounds in solution (filtering parameters); format: physicochemical
Procedure: The evaluation of the sun protection parameters has been carried out using a UV-Vis spectrophotometer. The absorbance of the solutions of the test compounds dissolved in the different solvents (DMSO, MeOH, DMSO–H2O 4:6, DMSO–H2O 6:4, HE) at a concentration of 0.0015 (±0.000005)% was recorded in the range 290–400 nm using a 1 cm quartz cell at 1 nm intervals. It was decided to evaluate the profile of the compounds in the Peg-7 Glyceryl Cocoate (HE) oil, which is the emollient of choice to solubilize the compounds in a formulation suitable for in vivo analysis. Wavelength absorbance is in relationship with transmittance (T (λ)) from Equation (2) A (λ) = […](2) where T (λ) is the fraction of incident irradiance that is transmitted through a sample.
The three parameters were determined, respectively, in DMSO and in methanol in order to perform a comparison (Table S1).
Since DMSO is a solvent with characteristics very close to those of an oil, the analysis was also carried out in solutions that mimic the possible conditions of a formulation. For this reason, the 4:6 and 6:4 proportions of DMSO–H2O were chosen to evaluate the choice of an oil-in-water or water-in-oil emulsion.

[3] = system: Trichophyton mentagrophytes; assay: Antidermatophyte activity, plaque growth inhibition; format: cell-based, Trichophyton mentagrophytes CBS 160.66; conditions: read-out: % Inhibition Growth T. mentagrophytes
Procedure: as §1, §2, §3

[4] = Filtering parameters (in vitro SPF, UVAPF, UVA/UVB, critical wavelength) of W/O formulations on PMMA plates; format: physicochemical
Procedure: The synthesized derivatives were incorporated at increasing concentrations (1%, 2% and 3%) in a topical W/O cosmetic standard formulation, to evaluate the filtering parameters, having the following ingredients composition.
INCI (International Nomenclature Cosmetic Ingredients): aqua, glycerin, Euxyl PE 9010, xanthan gum, ceteareth-12, ceteareth-20, sterearic acid, butylhydroxytoluene, myritol, PEG-7 glyceryl cocoate and 10% sodium solution.
Briefly, the protocol is to finger spread 32.5 mg of each formulation onto 25 cm2 PMMA plates. Each formulation was tested in triplicate by recording five measurements for each dish, after incubation in the dark for 15–30 min at room temperature. UV transmittance data were recorded in the range 290–400 nm using a UV-VIS spectrophotometer.
Blank plate, SPF, UVA-PF and Critical Wavelength were achieved through SPF Calculator Software (version 2.1), Shimadzu, Milan, Italy) as previously reported.
For the determination of the SPF in vitro of the samples in formulation it was decided to use an internal method, developed by us previously and based on the adaptation of the ISO 24443: 2012 [38]. The transmittance spectrum, processed with a specific software (SPF Calculator), made it possible to obtain the SPF, UVAPF, critical lambda and UVA/UVB ratio values of the formulations containing the selected active ingredients (Table 1).

SMILES | DPPH (% Inhibition) (In vitro DPPH test) | FRAP [1] | inhibition at 100 µg/mL (Microsporum gypseum; 100 μg/mL, SDA) [%] | inhibition at 100 µg/mL (Trichophyton tonsurans; 100 μg/mL, SDA) [%] | inhibition at 100 µg/mL (Microsporum canis; 100 μg/mL, SDA) [%] | inhibition at 100 µg/mL (Epidermophyton floccosum; 100 μg/mL, SDA) [%] | A (absorbance) ([2]; DMSO) | ε (molar extinction coefficient) ([2]; DMSO) | λmax ([2]; DMSO) [nm] | A (absorbance) ([2]; MeOH) | ε (molar extinction coefficient) ([2]; MeOH) | λmax ([2]; MeOH) [nm] | inhibition at 100 µg/mL ([3]; 100 μg/mL, SDA) [%] | melting point [°C] | further results
O=C(O)/C=C/c1ccc(O)c(O)c1 [Caffeic acid, reference compound] | 80.15 ± 1.24% | 10125.48 ± 32.87 μmolTE/g |  |  |  |  |  |  |  |  |  |  |  |  | 
O=C(O)c1ccc2nc(-c3ccc[nH]3)sc2c1 [Compound 8b, 2-(1H-Pyrrol-2-Yl)benzothiazole-6-Carboxylic Acid] | 5.71 ± 0.37% | 373.15 ± 1.27 μmolTE/g | < 0 | 5.45 ± 0.12 | < 0 | < 0 | 0.370 | 5308.47 | 348.87 | 0.190 | 3089.43 | 341.63 | < 0 | > 250 | 
NS(=O)(=O)c1ccc2nc(-c3ccc[nH]3)sc2c1 [Compound 8c, 2-(1H-Pyrrol-2-Yl)benzothiazole-6-Sulfonamide] | 45.24 ± 2.78% | 119.12 ± 1.49 μmolTE/g | 23.1 ± 0.48 | 2.25 ± 0.03 | 23.3 ± 0.86 | 24.7 ± 0.71 | 0.700 | 13944.22 | 344.37 | 0.760 | 13263.53 | 341.40 | 2.36 ± 0.17 | > 250 | 
O=C(O)c1ccc2nc(-c3ccco3)sc2c1 [Compound 9b, 2-(Furan-2-Yl)benzothiazole-6-Carboxylic Acid] | 9.49 ± 0.04% | 66.07 ± 8.23 μmolTE/g | 18.1 ± 0.97 | 29.8 ± 1.23 | 14.5 ± 0.83 | 5.48 ± 0.12 | 1.36 | 23901.58 | 331.90 | 1.02 | 19318.18 | 327.57 | < 0 | > 250 | 
NS(=O)(=O)c1ccc2nc(-c3ccco3)sc2c1 [Compound 9c, 2-(Furan-2-Yl)benzothiazole-6-Sulfonamide] | 64.92 ± 0.91% | 150.34 ± 11.01 μmolTE/g | 17.82 ± 0.06 | < 0 | 19.5 ± 1.2 | 36.4 ± 1.25 | 0.59 | 10332.75 | 329.00 | 0.740 | 13805.97 | 325.30 | 10.97 ± 0.08 | > 250 | 
O=C(O)c1ccc2nc(-c3cccs3)sc2c1 [Compound 10b, 2-(Thiophen-2-Yl)benzothiazole-6-Carboxylic Acid] | 46.04 ± 0.07% | 133.91 ± 8.13 μmolTE/g | 18.5 ± 1.23 | 65.5 ± 1.58 | 27.6 ± 1.47 | 28.3 ± 1.04 | 1.160 | 17818.74 | 340.00 | 1.140 | 21268.66 | 334.57 | 14.2 ± 1.01 | > 250 | 
O=S(=O)(O)c1ccc2[nH]c(-c3ccccc3)nc2c1 [PBSA, 2-Phenyl-1H-benzo[d]imidazole-5-sulfonic acid, reference compound] | <LOQ * | <LOQ * |  |  |  |  | 1.130 | 23839.66 | 310.50 | 1.460 | 30801.69 |  |  |  | inhibition at 100 µg/mL (Microsporum gypseum): 9.44 ± 0.35%; inhibition at 100 µg/mL (Trichophyton tonsurans): < 0%; inhibition at 100 µg/mL (Microsporum canis): < 0%; inhibition at 100 µg/mL (Epidermophyton floccosum): 7.28 ± 0.56%; SPF ([4]; 1% in W/O formulation): 3.22; UVAPF ([4]; 1% in W/O formulation): 0.94; λc ([4]; 1% in W/O formulation): 319 nm; SPF ([4]; 2% in W/O formulation): 4.63; UVAPF ([4]; 2% in W/O formulation): 0.94; λc ([4]; 2% in W/O formulation): 321 nm; SPF ([4]; 3% in W/O formulation): 5.09; UVAPF ([4]; 3% in W/O formulation): 1.02; λc ([4]; 3% in W/O formulation): 324 nm; inhibition at 100 µg/mL [3]: < 0%
